The results in this text go back to patent US9072698B2, “Method for screening anti-cancer compounds inhibiting function of TM4SF5 and anti-cancer composition containing chalcone compounds” (Seoul National University Industry Foundation, priority 2006, dated 2015).

Molecules are shown by their SMILES. ≈ marks a conversion by molar mass, not a printed value.

Holding throughout (type): cell-based
Test [1] concerns HCT15 (colon adenocarcinoma). Kind of test: In vitro cytotoxicity, sulforhodamine B (SRB) method, HCT15. The note with it: Homo sapiens; HCT-15, SRB method; read-out: cytotoxicity (ED50) HCT-15. The protocol:
(§1) The chalcone derivatives of the present invention were evaluated for in vitro cytotoxicity against human carcinoma cell lines using a sulforhodamine B (SRB) method, which was developed in 1989 by the National Cancer Institute (NCI), USA.
(§2) HCT15 (colon adenocarcinoma; ATCC CCL-225), PC-3 (prostate adenocarcinoma; ATCC CRL-1435), and A-549 (lung carcinoma; ATCC CCL-185) cell lines were used. All of these carcinoma cells were sub-cultured at the Korean Research Institute of Bioscience and Biotechnology (KRIBB), Korea.
(§3) The human carcinoma cell lines were cultured in 10% FCS-containing RPMI 1640 medium (Gibco Cat. No. 31800) in an incubator at 37° C. under 5% CO2, and sub-cultured twice per week.
(§4) Cells were detached from the attached surface using 0.25% Trypsin (Sigma) and 3 mM CDTA (1,2-cyclohexane diamine tetraacetic acid, Sigma) in phosphate buffered saline (PBS, Sigma).
(§5) Compounds to be tested (the chalcone derivatives set forth in Table 1) were dissolved in a small amount of dimethylsulfoxide (DMSO, Sigma), and diluted in culture medium to a desired concentration. The final concentration of DMSO was less than 0.5%. The diluted compounds (final concentration: 30, 10, 3, 1 and 0.3 μg/ml) were sterilized through a 0.22-μm microfilter (Millipore). The cytotoxicity of the compounds to human carcinoma cell lines was assessed using a typical SRB method.
In general terms: The SRB assay estimates cell density from bound dye.

A further test relates to A-549 (lung carcinoma). The test can be described thus: In vitro cytotoxicity, sulforhodamine B (SRB) method, A-549. The note with it: Homo sapiens, A549; A-549, SRB method; read-out: cytotoxicity (ED50) A-549. The protocol: as §1, §2, §3, §4, §5
Test [2] deals with PC-3 (prostate adenocarcinoma). Kind of test: In vitro cytotoxicity, sulforhodamine B (SRB) method, PC-3. The note with it: Homo sapiens; PC-3, SRB method; read-out: cytotoxicity (ED50) PC-3. The protocol: as §1, §2, §3, §4, §5

Consider `O=C(/C=C/c1ccc(O)c(O)c1)c1cccc(NS(=O)(=O)c2cccc(O)c2)c1` [Compound 64, 3′-(m-hydroxybenzenesulfonylamino)-3,4-dihydroxychalcone], for which the IC50 came to 4 µg/mL (≈ 9.72 µM) in test [1], 3 µg/mL (≈ 7.29 µM) in the test on A-549 (lung carcinoma) and 7 µg/mL (≈ 17 µM) in test [2].

With `O=C(/C=C/c1cccc(O)c1O)c1cccc(NS(=O)(=O)c2cccc(O)c2)c1` [Compound 65, 3′-(m-hydroxybenzenesulfonylamino)-2,3-dihydroxychalcone], the IC50 in test [1] stood at 9 µg/mL (≈ 21.9 µM); in the test on A-549 (lung carcinoma), 4 µg/mL (≈ 9.72 µM); in test [2], 13 µg/mL (≈ 31.6 µM).

Consider `O=C(/C=C/c1ccc(O)cc1O)c1cccc(NS(=O)(=O)c2cccc(O)c2)c1` [Compound 66, 3′-(m-hydroxybenzenesulfonylamino)-2,4-dihydroxychalcone], for which the IC50 in test [1] worked out at 11 µg/mL (≈ 26.7 µM); with A-549 (lung carcinoma) it was 11 µg/mL (≈ 26.7 µM); in test [2], 13 µg/mL (≈ 31.6 µM).

As for `O=C(/C=C/c1cc(O)ccc1O)c1cccc(NS(=O)(=O)c2cccc(O)c2)c1` [Compound 67, 3′-(m-hydroxybenzenesulfonylamino)-2,5-dihydroxychalcone], the results for the IC50 (in test [1]; in the test with A-549 (lung carcinoma); in test [2]) were 7 µg/mL (≈ 17 µM), 14 µg/mL (≈ 34 µM) and 15 µg/mL (≈ 36.5 µM), respectively.

Regarding `O=C(/C=C/c1ccc(O)c(O)c1)c1ccccc1NS(=O)(=O)c1cccc(O)c1` [Compound 68, 2′-(m-hydroxybenzenesulfonylamino)-3,4-dihydroxychalcone], the IC50 was 6 µg/mL (≈ 14.6 µM) in test [1], 8 µg/mL (≈ 19.4 µM) in the test on A-549 (lung carcinoma) and 10 µg/mL (≈ 24.3 µM) in test [2].

Take `O=C(/C=C/c1cccc(O)c1O)c1ccccc1NS(=O)(=O)c1cccc(O)c1` [Compound 69, 2′-(m-hydroxybenzenesulfonylamino)-2,3-dihydroxychalcone]: the IC50 in test [1] turned out to be 7 µg/mL (≈ 17 µM); in the test on A-549 (lung carcinoma) it was 8 µg/mL (≈ 19.4 µM); in test [2], 16 µg/mL (≈ 38.9 µM).

With `O=C(/C=C/c1ccc(O)cc1O)c1ccccc1NS(=O)(=O)c1cccc(O)c1` [Compound 70, 2′-(m-hydroxybenzenesulfonylamino)-2,4-dihydroxychalcone], the IC50 came out at 8 µg/mL (≈ 19.4 µM) in test [1], 9 µg/mL (≈ 21.9 µM) with A-549 (lung carcinoma) and 11 µg/mL (≈ 26.7 µM) in test [2].

For the compound `O=C(/C=C/c1cc(O)ccc1O)c1ccccc1NS(=O)(=O)c1cccc(O)c1` [Compound 71, 2′-(m-hydroxybenzenesulfonylamino)-2,5-dihydroxychalcone], the IC50 was 12 µg/mL (≈ 29.2 µM) in test [1], 7 µg/mL (≈ 17 µM) in the test on A-549 (lung carcinoma) and 24 µg/mL (≈ 58.3 µM) in test [2].

With `O=C(/C=C/c1ccc(O)c(O)c1)c1ccc(NS(=O)(=O)c2ccc(F)cc2)cc1` [Compound 72, 4′-(p-fluorobenzensulfonylamino)-3,4-dihydroxychalcone], the figures for the IC50 (in test [1]; in the test with A-549 (lung carcinoma); in test [2]) were 10 µg/mL (≈ 24.2 µM), 11 µg/mL (≈ 26.6 µM) and 8 µg/mL (≈ 19.4 µM), respectively.

As for `O=C(/C=C/c1ccc(O)c(O)c1)c1ccc(NS(=O)(=O)c2ccccc2F)cc1` [Compound 74, 4′-(o-fluorobenzensulfonylamino)-3,4-dihydroxychalcone], the results for the IC50 (in test [1]; with A-549 (lung carcinoma); in test [2]) were 8 µg/mL (≈ 19.4 µM), 11 µg/mL (≈ 26.6 µM) and 14 µg/mL (≈ 33.9 µM), respectively.

`O=C(/C=C/c1ccc(O)c(O)c1)c1ccc(NS(=O)(=O)c2ccc([N+](=O)[O-])cc2)cc1` [Compound 75, 4′-(p-nitrobenzensulfonylamino)-3,4-dihydroxychalcone]: the IC50 in test [1] came to 8 µg/mL (≈ 18.2 µM); in the test with A-549 (lung carcinoma), 14 µg/mL (≈ 31.8 µM); in test [2], 15 µg/mL (≈ 34.1 µM).

`O=C(/C=C/c1ccc(O)c(O)c1)c1ccc(NS(=O)(=O)c2cccc([N+](=O)[O-])c2)cc1` [Compound 76, 4′-(m-nitrobenzensulfonylamino)-3,4-dihydroxychalcone]: the IC50 in test [1] was determined as 12 µg/mL (≈ 27.2 µM); with A-549 (lung carcinoma) it was 11 µg/mL (≈ 25 µM); in test [2] it was 17 µg/mL (≈ 38.6 µM).

Take `O=C(/C=C/c1ccc(O)c(O)c1)c1ccc(NS(=O)(=O)c2ccccc2[N+](=O)[O-])cc1` [Compound 77, 4′-(o-nitrobenzensulfonylamino)-3,4-dihydroxychalcone]: the IC50 in test [1] is 10 µg/mL (≈ 22.7 µM); with A-549 (lung carcinoma), 11 µg/mL (≈ 25 µM); in test [2] it was 12 µg/mL (≈ 27.2 µM).

In the case of `Nc1ccc(S(=O)(=O)Nc2ccc(C(=O)/C=C/c3ccc(O)c(O)c3)cc2)cc1` [Compound 78, 4′-(p-aminobenzensulfonylamino)-3,4-dihydroxychalcone], the IC50 in test [1] came out at 5 µg/mL (≈ 12.2 µM); with A-549 (lung carcinoma) it was 10 µg/mL (≈ 24.4 µM); in test [2], 7 µg/mL (≈ 17.1 µM).

For the compound `Nc1cccc(S(=O)(=O)Nc2ccc(C(=O)/C=C/c3ccc(O)c(O)c3)cc2)c1` [Compound 79, 4′-(m-aminobenzensulfonylamino)-3,4-dihydroxychalcone], the IC50 was found to be 7 µg/mL (≈ 17.1 µM) in test [1], 8 µg/mL (≈ 19.5 µM) with A-549 (lung carcinoma) and 15 µg/mL (≈ 36.5 µM) in test [2].

As to `Nc1ccccc1S(=O)(=O)Nc1ccc(C(=O)/C=C/c2ccc(O)c(O)c2)cc1` [Compound 80, 4′-(o-aminobenzensulfonylamino)-3,4-dihydroxychalcone], the IC50 in test [1] was determined as 13 µg/mL (≈ 31.7 µM); with A-549 (lung carcinoma) it was 11 µg/mL (≈ 26.8 µM); in test [2], 23 µg/mL (≈ 56 µM).

With `O=C(/C=C/c1ccc(O)c(O)c1)c1ccc(NS(=O)(=O)c2ccccc2)cc1` [Compound 81, 4′-(benzensulfonylamino)-3,4-dihydroxychalcone], the IC50 in test [1] turned out to be 14 µg/mL (≈ 35.4 µM); in the test on A-549 (lung carcinoma) it was 28 µg/mL (≈ 70.8 µM); in test [2] it was 24 µg/mL (≈ 60.7 µM).

On to `CS(=O)(=O)Nc1ccc(C(=O)/C=C/c2ccc(O)c(O)c2)cc1` [Compound 82, 4′-(methanesulfonylamino)-3,4-dihydroxychalcone], for which the IC50 in test [1] was found to be 12 µg/mL (≈ 36 µM); with A-549 (lung carcinoma), 17 µg/mL (≈ 51 µM); in test [2], 22 µg/mL (≈ 66 µM).

Turning to `Cc1ccc(S(=O)(=O)Nc2ccc(C(=O)/C=C/c3ccc(O)cc3Cl)cc2)cc1` [Compound 83, 4′-(p-toluenebenzensulfonylamino)-2-chloro-4-hydroxychalcone], the IC50 came out at 15 µg/mL (≈ 35.1 µM) in test [1], 11 µg/mL (≈ 25.7 µM) in the test on A-549 (lung carcinoma) and 14 µg/mL (≈ 32.7 µM) in test [2].

As to `O=C(/C=C/c1ccc(O)cc1)c1ccc(OS(=O)(=O)c2ccc(O)cc2)cc1` [Compound 84, 4′-(p-hydroxybenzenesulfonate)-4-hydroxychalcone], the IC50 amounted to 32 µg/mL (≈ 80.7 µM) in test [1], 38 µg/mL (≈ 95.9 µM) in the test with A-549 (lung carcinoma) and 22 µg/mL (≈ 55.5 µM) in test [2].

As to `O=C(/C=C/c1cccc(O)c1)c1ccc(OS(=O)(=O)c2ccc(O)cc2)cc1` [Compound 85, 4′-(p-hydroxybenzenesulfonate)-3-hydroxychalcone], the IC50 in test [1] was found to be 29 µg/mL (≈ 73.2 µM); in the test with A-549 (lung carcinoma), 33 µg/mL (≈ 83.2 µM); in test [2], 28 µg/mL (≈ 70.6 µM).

With `O=C(/C=C/c1ccccc1O)c1ccc(OS(=O)(=O)c2ccc(O)cc2)cc1` [Compound 86, 4′-(p-hydroxybenzenesulfonate)-2-hydroxychalcone], the figures for the IC50 (in test [1]; in the test on A-549 (lung carcinoma); in test [2]) were 26 µg/mL (≈ 65.6 µM), 30 µg/mL (≈ 75.7 µM) and 34 µg/mL (≈ 85.8 µM), respectively.

Take `O=C(/C=C/c1ccc(O)cc1)c1ccc(OS(=O)(=O)c2cccc(O)c2)cc1` [Compound 87, 4′-(m-hydroxybenzenesulfonate)-4-hydroxychalcone]: the IC50 worked out at 19 µg/mL (≈ 47.9 µM) in test [1], 20 µg/mL (≈ 50.5 µM) in the test on A-549 (lung carcinoma) and 21 µg/mL (≈ 53 µM) in test [2].

`O=C(/C=C/c1cccc(O)c1)c1ccc(OS(=O)(=O)c2cccc(O)c2)cc1` [Compound 88, 4′-(m-hydroxybenzenesulfonate)-3-hydroxychalcone]: the figures for the IC50 (in test [1]; with A-549 (lung carcinoma); in test [2]) were 21 µg/mL (≈ 53 µM), 32 µg/mL (≈ 80.7 µM) and 28 µg/mL (≈ 70.6 µM), respectively.

Turning to `O=C(/C=C/c1ccccc1O)c1ccc(OS(=O)(=O)c2cccc(O)c2)cc1` [Compound 89, 4′-(m-hydroxybenzenesulfonate)-2-hydroxychalcone], the values for the IC50 (in test [1]; in the test on A-549 (lung carcinoma); in test [2]) were 24 µg/mL (≈ 60.5 µM), 37 µg/mL (≈ 93.3 µM) and 33 µg/mL (≈ 83.2 µM), respectively.

Turning to `O=C(/C=C/c1ccc(O)c(O)c1)c1ccc(OS(=O)(=O)c2ccc(O)cc2)cc1` [Compound 90, 4′-(p-hydroxybenzenesulfonate)-3,4-dihydroxychalcone], the IC50 in test [1] worked out at 6 µg/mL (≈ 14.5 µM); in the test with A-549 (lung carcinoma), 4 µg/mL (≈ 9.7 µM); in test [2] it was 8 µg/mL (≈ 19.4 µM).

As for `O=C(/C=C/c1cccc(O)c1O)c1ccc(OS(=O)(=O)c2ccc(O)cc2)cc1` [Compound 91, 4′-(p-hydroxybenzenesulfonate)-2,3-dihydroxychalcone], the IC50 in test [1] was found to be 7 µg/mL (≈ 17 µM); in the test on A-549 (lung carcinoma), 10 µg/mL (≈ 24.2 µM); in test [2] it was 14 µg/mL (≈ 33.9 µM).

For the compound `O=C(/C=C/c1ccc(O)cc1O)c1ccc(OS(=O)(=O)c2ccc(O)cc2)cc1` [Compound 92, 4′-(p-hydroxybenzenesulfonate)-2,4-dihydroxychalcone], the IC50 was 8 µg/mL (≈ 19.4 µM) in test [1], 9 µg/mL (≈ 21.8 µM) in the test with A-549 (lung carcinoma) and 7 µg/mL (≈ 17 µM) in test [2].

Turning to `O=C(/C=C/c1cc(O)ccc1O)c1ccc(OS(=O)(=O)c2ccc(O)cc2)cc1` [Compound 93, 4′-(p-hydroxybenzenesulfonate)-2,5-dihydroxychalcone], the IC50 was 6 µg/mL (≈ 14.5 µM) in test [1], 8 µg/mL (≈ 19.4 µM) in the test on A-549 (lung carcinoma) and 14 µg/mL (≈ 33.9 µM) in test [2].

For the compound `O=C(/C=C/c1ccc(O)c(O)c1)c1ccc(OS(=O)(=O)c2cccc(O)c2)cc1` [Compound 94, 4′-(m-hydroxybenzenesulfonate)-3,4-dihydroxychalcone], the IC50 came to 7 µg/mL (≈ 17 µM) in test [1], 11 µg/mL (≈ 26.7 µM) in the test on A-549 (lung carcinoma) and 16 µg/mL (≈ 38.8 µM) in test [2].
